Source: article PMC11390765 (Cancer Chemotherapy and Pharmacology, 2024)
“And” between values parts separate entries of the source, which are not always exact repeats. Equal entries are not always repeated. Marks after values point to notes of the source that are not given here.

Tests used:
[1] = Midazolam plasma pharmacokinetics with or without capivasertib (part A); conditions: for AUC(0-inf): AUCinf; for tmax: median (range); for half-life: t½λz
[2] = Safety and tolerability (adverse events, CTCAE v5.0; full analysis set); assay type: in vivo, human; conditions: period 1, day 1 cycle 1, midazolam only 1 mg, N=21
Method: Safety and tolerability were evaluated in terms of AEs, which were classified and graded according to the National Cancer Institute (NCI) Common Terminology Criteria for Adverse Events (CTCAE) v5.0; vital signs; 12-lead electrocardiogram (ECG); and clinical laboratory assessments, including clinical chemistry and hematology parameters, urinalysis, HbA1c levels, and lipid profiles.
Efficacy analyses were also performed on the full analysis set. Summary and/or descriptive statistics were used to analyze baseline demographic, safety, and efficacy data; PFS and DoR were estimated using Kaplan–Meier methodology.

[3] = Plasma pharmacokinetics of capivasertib and its glucuronide metabolite; assay type: in vivo, human
[4] = system: CYP; set-up: method as in unpublished data; conditions: ref unpublished data; cited from earlier work
[5] = human, plasma, oral, geometric mean (gCV%), day 8 of cycle 1, midazolam 1 mg on 3rd day off capivasertib 400 mg BID, N = 16
[6] = human, plasma, oral, geometric mean (gCV%), day 12 of cycle 1, midazolam 1 mg on 4th day on capivasertib 400 mg BID, N = 15
[7] = human, plasma, po, 1 mg, geometric mean (gCV%), day 1 of cycle 1, midazolam alone, single oral 1 mg, N = 18

SMILES: Cc1ncc2n1-c1ccc(Cl)cc1C(c1ccccc1F)=NC2 [midazolam, reference compound]
- Cmax ([1]; geometric mean (gCV%), day 1 of cycle 1, midazolam alone, single oral 1 mg, N = 18): 8.55^a (39.6) ng/mL
- AUClast ([1]; geometric mean (gCV%), day 8 of cycle 1, midazolam 1 mg on 3rd day off capivasertib 400 mg BID, N = 16): 24.49^b (45.3) h*ng/mL
- AUC(0-inf) [1, 5]: 28.3 ng·h/mL
- AUC(0-inf) [1, 6]: 39.5 ng·h/mL
- Cmax ([1]; human, plasma, oral, Cmax, geometric mean (gCV%), day 8 of cycle 1, midazolam 1 mg on 3rd day off capivasertib 400 mg BID, N = 16): 9.9 ng/mL
- Cmax ([1]; human, plasma, oral, Cmax, geometric mean (gCV%), day 12 of cycle 1, midazolam 1 mg on 4th day on capivasertib 400 mg BID, N = 15): 9.83 ng/mL
- tmax ([1]; human, plasma, oral, day 8 of cycle 1, midazolam 1 mg on 3rd day off capivasertib 400 mg BID, N = 16): ~0.5 h
- tmax ([1]; human, plasma, oral, day 12 of cycle 1, midazolam 1 mg on 4th day on capivasertib 400 mg BID, N = 15): ~0.5 h
- half-life [1, 5]: 8.52 h
- half-life [1, 6]: 7.23 h
- AUC(0-t) ([1]; human, plasma, po, 1 mg): 22.4 ng·h/mL
- AUC(0-inf) [1, 7]: 25 ng·h/mL
- tmax ([1]; human, plasma, po, 1 mg, day 1 of cycle 1, midazolam alone, single oral 1 mg, N = 18): ~0.5 h
- half-life [1, 7]: 7.24 h
- Abdominal pain, any grade [2]: 0 n (%)
- Abdominal pain, grade ≥ 3 [2]: 0 n (%)
- Anemia, any grade [2]: 0 n (%)
- Anemia, grade ≥ 3 [2]: 0 n (%)
- Any AE, any grade [2]: 3 (14.3) n (%)
- Any AE, grade ≥ 3 [2]: 0 n (%)
- Asthenia, any grade [2]: 0 n (%)
- Asthenia, grade ≥ 3 [2]: 0 n (%)
- Blood alkaline phosphatase increased, any grade [2]: 0 n (%)
- Blood alkaline phosphatase increased, grade ≥ 3 [2]: 0 n (%)
- Blood bilirubin increased, any grade [2]: 0 n (%)
- Blood bilirubin increased, grade ≥ 3 [2]: 0 n (%)
- Blood creatinine increased, any grade [2]: 0 n (%)
- Blood creatinine increased, grade ≥ 3 [2]: 0 n (%)
- COVID-19, any grade [2]: 0 n (%)
- COVID-19, grade ≥ 3 [2]: 0 n (%)
- Decreased appetite, any grade [2]: 0 n (%)
- Decreased appetite, grade ≥ 3 [2]: 0 n (%)
- Diarrhea, any grade [2]: 0 n (%)
- Diarrhea, grade ≥ 3 [2]: 0 n (%)
- Fatigue, any grade [2]: 0 n (%)
- Fatigue, grade ≥ 3 [2]: 0 n (%)
- Gamma-glutamyl transferase increased, any grade [2]: 0 n (%)
- Gamma-glutamyl transferase increased, grade ≥ 3 [2]: 0 n (%)
- Hyperglycemia, any grade [2]: 1 (4.8) n (%)
- Hyperglycemia, grade ≥ 3 [2]: 0 n (%)
- Hypoalbuminemia, any grade [2]: 0 n (%)
- Hypoalbuminemia, grade ≥ 3 [2]: 0 n (%)
- Hypokalemia, any grade [2]: 0 n (%)
- Hypokalemia, grade ≥ 3 [2]: 0 n (%)
- Hyponatremia, any grade [2]: 0 n (%)
- Hyponatremia, grade ≥ 3 [2]: 0 n (%)
- Hypotension, any grade [2]: 0 n (%)
- Hypotension, grade ≥ 3 [2]: 0 n (%)
- Large intestinal obstruction, any grade [2]: 0 n (%)
- Large intestinal obstruction, grade ≥ 3 [2]: 0 n (%)
- Lymphocyte count decreased, any grade [2]: 0 n (%)
- Lymphocyte count decreased, grade ≥ 3 [2]: 0 n (%)
- Nausea, any grade [2]: 0 n (%)
- Nausea, grade ≥ 3 [2]: 0 n (%)
- Rash (group term), any grade [2]: 0 n (%)
- Rash (group term), grade ≥ 3 [2]: 0 n (%)
- Sepsis, any grade [2]: 0 n (%)
- Sepsis, grade ≥ 3 [2]: 0 n (%)
- Thrombocytopenia, any grade [2]: 0 n (%)
- Thrombocytopenia, grade ≥ 3 [2]: 0 n (%)
- Ureteric obstruction, any grade [2]: 0 n (%)
- Ureteric obstruction, grade ≥ 3 [2]: 0 n (%)
- Urticaria, any grade [2]: 0 n (%)
- Urticaria, grade ≥ 3 [2]: 0 n (%)

SMILES: NC1(C(=O)N[C@@H](CCO[C@@H]2O[C@H](C(=O)O)[C@@H](O)[C@H](O)[C@H]2O)c2ccc(Cl)cc2)CCN(c2ncnc3[nH]ccc23)CC1 [AZ14102143]
- AUCτ ([3]; geometric mean (gCV%), 12-h dosing interval, day 12 of cycle 1, capivasertib 400 mg BID): 68,810 h*ng/mL
- Ctrough cycle 1, day 13 ([3]; geometric mean (gCV%), 12 h post day 12 capivasertib evening dose): 2575 ng/mL and 2575^f (106.9) ng/mL
- Ctrough cycle 1, day 9 ([3]; geometric mean (gCV%), after 3 off-capivasertib-dosing days): 45.22 ng/mL and 45.22^e (242.1) ng/mL
- Cmax ([3]; geometric mean (gCV%), day 12 of cycle 1, 4th day on capivasertib 400 mg BID, with single oral midazolam 1 mg): 11,220 ng/mL
- t½λz ([3]; geometric mean (gCV%), day 12 of cycle 1, capivasertib 400 mg BID): 3.40 h
- tmax ([3]; median (range), day 12 of cycle 1, capivasertib 400 mg BID): 2.03^a (0.6–7.6) h
- CYP inhibition in vitro [4]: little or no CYP inhibition
